Among the test systems are HL-60(TB) leukemia; NCI-H522 lung; HT29 colon; SNB-19 CNS; SK-MEL-5 melanoma; K-562 leukemia; OVCAR-3 ovarian; UACC-62 melanoma; SR leukemia; UACC-257 melanoma; HCT-15 colon; SF-539 CNS; U251 CNS; HOP-62 NSCLC; SNB-75 CNS; LOX IMVI melanoma; HOP-92 NSCLC; NCI-H23 lung; MDA-N; PC-3 prostate.
Holding throughout (assay): NCI-60 cell line screen, 48 h

This note sets out measurements from PubChem BioAssay (NCI).

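Growth conditions: 96-well plates. Treatment: test compound, 48 hours, 5 concentrations. Analysis: linear interpolation between bracketing concentrations; unreached endpoints set to highest concentration. TGI denotes the concentration required for complete inhibition of growth.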 Bounds are passed on as bounds.

As for `Cc1c2n(c(=O)[nH]c1=O)C1OC(CO)C(N=[N+]=[N-])C1O2` (configuration not stated), the TGI in the experiment with HL-60(TB) leukemia, in the experiment on NCI-H522 lung, in the experiment with HT29 colon, with SNB-19 CNS, in the experiment with SK-MEL-5 melanoma and in the experiment on K-562 leukemia was more than 100 µM throughout. Besides, the TGI with OVCAR-3 ovarian, with UACC-62 melanoma, with SR leukemia, in the experiment on UACC-257 melanoma, with HCT-15 colon and in the experiment on SF-539 CNS was more than 100 µM in each case. Also, the TGI in the experiment on U251 CNS, in the experiment with HOP-62 NSCLC, in the experiment with SNB-75 CNS, with LOX IMVI melanoma, in the experiment on HOP-92 NSCLC and in the experiment on NCI-H23 lung was more than 100 µM in each case.
As to `CC1=Cc2cccc(C)c2C(=O)C1=O`, the TGI with HL-60(TB) leukemia was determined as 1.37 µM; in the experiment with NCI-H522 lung, 9.87 µM; in the experiment on HT29 colon it was 32.3 µM; with SNB-19 CNS, 45.3 µM; in the experiment with SK-MEL-5 melanoma it was 10.7 µM; in the experiment with OVCAR-3 ovarian, 6.78 µM. Further, the TGI is 10.7 µM in the experiment on UACC-62 melanoma; 4.72 µM with UACC-257 melanoma; 16.4 µM with HCT-15 colon; 15.5 µM in the experiment on SF-539 CNS; 41 µM in the experiment on U251 CNS; 30.2 µM in the experiment with HOP-62 NSCLC. Moreover, the TGI in the experiment with SNB-75 CNS turned out to be 29.9 µM; in the experiment on LOX IMVI melanoma it was 21.5 µM; in the experiment with HOP-92 NSCLC, 2.92 µM; in the experiment with NCI-H23 lung it was 32.8 µM.
With `Cc1ccc(/C=N\NC2c3cc(Cl)ccc3Nc3nc(=O)[nH]c(C)c32)cc1` (configuration not stated), the TGI in the experiment on HL-60(TB) leukemia, in the experiment on NCI-H522 lung, in the experiment with HT29 colon, in the experiment with SNB-19 CNS, in the experiment on K-562 leukemia and in the experiment on OVCAR-3 ovarian was more than 100 µM in each case. In addition, the TGI in the experiment with UACC-62 melanoma, in the experiment with SR leukemia, with UACC-257 melanoma, with SF-539 CNS, in the experiment with U251 CNS and in the experiment on HOP-62 NSCLC was more than 100 µM in each case. The TGI in the experiment on SNB-75 CNS, in the experiment on LOX IMVI melanoma, in the experiment with HOP-92 NSCLC and in the experiment with NCI-H23 lung was more than 100 µM in each case.
As to `CC(O)CNC(=O)C(C)Oc1ccc(OCC2CCCCC2)cc1` (configuration not stated), the TGI in the experiment with HL-60(TB) leukemia, with NCI-H522 lung, in the experiment on HT29 colon, with SNB-19 CNS, in the experiment on SK-MEL-5 melanoma and in the experiment on K-562 leukemia was more than 100 µM in each case. For the same compound, the TGI with OVCAR-3 ovarian, with UACC-62 melanoma, in the experiment with UACC-257 melanoma, in the experiment on HCT-15 colon, in the experiment with SF-539 CNS and in the experiment with U251 CNS was more than 100 µM throughout. Besides, the TGI in the experiment with SNB-75 CNS and with LOX IMVI melanoma was more than 100 µM in each case.
For `O=P(O)(O)C(N=C(Nc1ccccc1)Nc1ccccc1)P(=O)(O)O`, the TGI in the experiment on NCI-H522 lung, with HT29 colon, in the experiment on SNB-19 CNS, in the experiment with SK-MEL-5 melanoma, in the experiment on OVCAR-3 ovarian and in the experiment with UACC-62 melanoma was more than 100 µM throughout. In addition, the TGI with UACC-257 melanoma, in the experiment on HCT-15 colon, with SF-539 CNS, in the experiment on MDA-N, in the experiment on PC-3 prostate and in the experiment with HOP-62 NSCLC was more than 100 µM in each case. Moreover, the TGI in the experiment on LOX IMVI melanoma and in the experiment with NCI-H23 lung was more than 100 µM each time.
As to `O=C(O)COc1ccccc1C(=O)Nc1ccccc1`, the TGI in the experiment on HL-60(TB) leukemia, with NCI-H522 lung, in the experiment with HT29 colon, in the experiment with SNB-19 CNS, in the experiment on SK-MEL-5 melanoma and with K-562 leukemia was more than 100 µM throughout. Moreover, the TGI with OVCAR-3 ovarian, with UACC-62 melanoma, in the experiment with SR leukemia, in the experiment with UACC-257 melanoma, in the experiment on HCT-15 colon and with SF-539 CNS was more than 100 µM throughout. In addition, the TGI in the experiment with U251 CNS, in the experiment on HOP-62 NSCLC, in the experiment with SNB-75 CNS, in the experiment with LOX IMVI melanoma, in the experiment with HOP-92 NSCLC and with NCI-H23 lung was more than 100 µM in each case.
With `CCOc1cc(/C=C2/C(C)=NN(c3cccc(Cl)c3)/C2=N/c2nc3ccccc3s2)ccc1O`, the TGI in the experiment on HL-60(TB) leukemia is 12.4 µM; with NCI-H522 lung it was 52.7 µM; in the experiment with HT29 colon, more than 100 µM; in the experiment on SK-MEL-5 melanoma it was 40.2 µM; in the experiment on K-562 leukemia, more than 100 µM; with OVCAR-3 ovarian, 50.8 µM. Further, the TGI came to 81.1 µM in the experiment with SR leukemia; 61.6 µM in the experiment on UACC-257 melanoma; 69.8 µM with HCT-15 colon; 57 µM with SF-539 CNS; 43 µM in the experiment on U251 CNS; 43.5 µM in the experiment with PC-3 prostate. For the same compound, the TGI with HOP-62 NSCLC is more than 100 µM; in the experiment with SNB-75 CNS, more than 100 µM; in the experiment on LOX IMVI melanoma, more than 100 µM; in the experiment with HOP-92 NSCLC, 67.8 µM; with NCI-H23 lung, 50.7 µM.
For the compound `OC[C@H]1O[C@@H]2O[C@@](COCc3ccccc3)([C@H](OCc3ccccc3)[C@H]2O)[C@@H]1OCc1ccccc1`, the TGI with HL-60(TB) leukemia is 38.2 µM; in the experiment with NCI-H522 lung, 31.6 µM; with HT29 colon, 17.3 µM; in the experiment on SNB-19 CNS, 32.4 µM; with SK-MEL-5 melanoma, 29.2 µM; with K-562 leukemia, 25.2 µM. The TGI was 27.7 µM in the experiment with OVCAR-3 ovarian; 27.7 µM in the experiment with UACC-62 melanoma; 5.83 µM with SR leukemia; 32.2 µM in the experiment with UACC-257 melanoma; 36.1 µM in the experiment with HCT-15 colon; 32.9 µM with SF-539 CNS. The TGI in the experiment on U251 CNS amounted to 29.5 µM; with PC-3 prostate it was 28 µM; in the experiment on HOP-62 NSCLC, 32.6 µM; in the experiment with SNB-75 CNS it was 29.7 µM; with LOX IMVI melanoma, 32.2 µM; with HOP-92 NSCLC, 28.1 µM. In addition, in the experiment with NCI-H23 lung, the TGI came to 34.1 µM.
